Reference: patent US7910612B2, “4-oxy-N-[1,3,4]-thiadiazol-2-yl-benzene sulfonamides, pharmaceutical compositions and methods for their therapeutic use” (Sanofi-Aventis, priority 2005, dated 2011)

target: T1, human PPARdelta (Homo sapiens, UniProt Q03181); assay: cellular PPARdelta assay (stably transfected HEK luciferase reporter cell line); assay type: cell-based
T1 construct: amino acids S139-Y441; expressed in transfected cells; host or cells: HEK (human embryo kidney) cells, stably transfected, pcDNA3 vector
T1 sequence (Q03181 139-441): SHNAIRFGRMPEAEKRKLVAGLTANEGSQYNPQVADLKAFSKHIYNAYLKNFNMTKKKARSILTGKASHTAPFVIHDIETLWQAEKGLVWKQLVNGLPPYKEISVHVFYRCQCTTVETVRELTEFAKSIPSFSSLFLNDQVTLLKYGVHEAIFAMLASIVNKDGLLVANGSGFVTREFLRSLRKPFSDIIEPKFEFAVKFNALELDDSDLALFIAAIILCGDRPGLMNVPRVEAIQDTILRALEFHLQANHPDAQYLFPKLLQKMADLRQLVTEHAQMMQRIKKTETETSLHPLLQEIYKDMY
Procedure: The potency of substances which bind to human PPARdelta and activate it in an agonistic manner is analyzed using a stably transfected HEK cell line (HEK=human embryo kidney) which is referred to here as PPARdelta reporter cell line. In analogy to the assay described for PPARalpha, the PPARdelta reporter cell line also contains two genetic elements, a luciferase reporter element (pdeltaM-GAL4-Luc-Zeo) and a PPARdelta fusion protein (GR-GAL4-humanPPARdelta-LBD) which mediates expression of the luciferase reporter element depending on a PPARdelta ligand. The stably and constitutively expressed fusion protein GR-GAL4-humanPPARdelta-LBD binds in the cell nucleus of the PPARdelta reporter cell line via the GAL4 protein portion to the GAL4 DNA binding motifs 5′-upstream of the luciferase reporter element which is stably integrated in the genome of the cell line. There is only little expression of the luciferase reporter gene in the absence of a PPARdelta ligand if fatty acid-depleted fetal calf serum (cs-FCS) is used in the assay. PPARdelta ligands bind and activate the PPARdelta fusion protein and thereby stimulate expression of the luciferase reporter gene. The luciferase which is formed can be detected by means of chemiluminescence via an appropriate substrate.
The production of the stable PPARdelta reporter cell line is based on a stable HEK-cell clone which was stably transfected with a luciferase reporter element. This step was already described above in the section “construction of the PPARalpha reporter cell line”. In a second step, the PPARdelta fusion protein (GR-GAL4-humanPPARdelta-LBD was stably introduced into this cell clone. For this purpose, the cDNA coding for the N-terminal 76 amino acids of the glucocorticoid receptor (Accession #P04150) was linked to the cDNA section coding for amino acids 1-147 of the yeast transcription factor GAL4 (Accession #P04386). The cDNA of the ligand-binding domain of the human PPARdelta receptor (amino acids S139-Y441; Accession #L07592) was cloned in at the 3′-end of this GR-GAL4 construct. The fusion construct prepared in this way (GR-GAL4-humanPPARdelta-LBD) was recloned into the plasmid pcDNA3 (Invitrogen) in order to enable constitutive expression by the cytomegalovirus promoter. This plasmid was linearized with a restriction endonuclease and stably transfected into the previously described cell clone containing the luciferase reporter element. The resulting PPARdelta reporter cell line which contains a luciferase reporter element and constitutively expresses the PPARdelta fusion protein (GR-GAL4-human PPARdelta-LBD) was isolated by selection with zeocin (0.5 mg/ml) and G418 (0.5 mg/ml).
The activity of PPARdelta agonists is determined in a 3-day assay in exact analogy to the procedure already described for the PPARalpha reporter cell line except that the PPARdelta reporter cell line and a specific PPARdelta agonist was used as a standard to control test efficacy. […] Compounds of the invention of the formula I activate the PPARdelta receptor.

Point of comparison: `COc1ccc(-c2nc(COc3ccc(S(=O)(=O)Nc4nnc(C(C)C)s4)cc3)co2)cc1` [Example 13, N-(5-Isopropyl-[1,3,4]thiadiazol-2-yl)-4-[2-(4-methoxy-phenyl)-oxazol-4-ylmethoxy]-benzenesulfonamide], EC50 650 nM. Against it:
- Cc1nc(-c2ccc(C(F)(F)F)cc2)sc1COc1ccc(S(=O)(=O)Nc2nnc(C(C)C)s2)cc1 [Example 1, N-(5-Isopropyl-[1,3,4]thiadiazol-2-yl)-4-[4-methyl-2-(4-trifluoromethyl-phenyl)-thiazol-5-ylmethoxy]-benzenesulfonamide] — 1.8-fold lower, 370 nM
- COc1ccc2c(COc3ccc(S(=O)(=O)Nc4nnc(C(C)C)s4)cc3)coc2c1 [Example 3, N-(5-Isopropyl-[1,3,4]thiadiazol-2-yl)-4-(6-methoxy-benzofuran-3-ylmethoxy)-benzenesulfonamide] — within 1.5-fold, 480 nM
- CC(C)c1nnc(NS(=O)(=O)c2ccc(OCc3ccc(Oc4ccc(C(F)(F)F)cc4)cc3)cc2)s1 [Example 4, N-(5-Isopropyl-[1,3,4]thiadiazol-2-yl)-4-[4-(4-trifluoromethyl-phenoxy)-benzyloxy]-benzenesulfonamide] — 1.7-fold higher, 1130 nM
- COc1ccc(-c2nc(COc3ccc(S(=O)(=O)Nc4nnc(C(C)C)s4)cc3)no2)cc1 [Example 9, N-(5-Isopropyl-[1,3,4]thiadiazol-2-yl)-4-[5-(4-methoxy-phenyl)-[1,2,4]oxadiazol-3-ylmethoxy]-benzenesulfonamide] — 2.5-fold lower, 260 nM
- CCc1oc(-c2cccc(C(F)(F)F)c2)nc1COc1ccc(S(=O)(=O)Nc2nnc(C(C)C)s2)cc1 [Example 14, 4-[5-Ethyl-2-(3-trifluoromethyl-phenyl)-oxazol-4-ylmethoxy]-N-(5-isopropyl-[1,3,4]thiadiazol-2-yl)-benzenesulfonamide] — within 1.5-fold, 670 nM
